In patent US20180072739A1, “CO-CRYSTALS OF A BRUTON'S TYROSINE KINASE INHIBITOR” (Pharmacyclic LLC, priority 2015, published 2018) one finds solubility data, which are given here for one compound.

Broadly, the solubility is how much of the substance goes into solution per volume. Read a high solubility as a readily soluble substance.

This data set is described as follows: physchem. Particulars: water, 25 °C, thermodynamic from solid. Here is the method:
The suspension was equilibrated at 25° C. for 2 hours with aliquots sampled at 30, 60 and 120 min; the pH was measured at each time point. The suspension was then filtered through a glass fibre C filter. The filtrate was then diluted by an appropriate factor. Quantitation was by HPLC with reference to a standard solution of approximately 0.2 mg/mL in CH3CN:water. Different volumes of the standard, diluted and undiluted sample solutions were injected. […]

Values after ≈ are worked out from the molar mass of the structure shown.

Take `C=CC(=O)N1CCC[C@@H](n2nc(-c3ccc(Oc4ccccc4)cc3)c3c(N)ncnc32)C1` [Compound 1, 1-((R)-3-(4-amino-3-(4-phenoxyphenyl)-1H-pyrazolo[3,4-d]pyrimidin-1-yl)piperidin-1-yl)prop-2-en-1-one]: the solubility at 30 min was about 1640 µg/mL (≈ 3.72 mM), the solubility at 60 min is about 1640 µg/mL (≈ 3.72 mM) and the solubility at 120 min is about 1690 µg/mL (≈ 3.84 mM).
